Assays:
Experiment in all cases: relative viability (nuclei count vs DMSO), 5 days (fraction); higher = more cells survive
Bortezomib + Phenformin = compound: CC(C)C[C@H](NC(=O)[C@H](Cc1ccccc1)NC(=O)c1cnccn1)B(O)O [Bortezomib] + N=C(N)NC(=N)NCCc1ccccc1 [Phenformin] (partner 250 µM)
Summary of the method: (§1)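 Dosing by pin tool came one day after lung cancer cell lines were seeded in 1536-well plates, using either one drug or a fixed anchor-drug dose plus five library-drug doses (not always all listed) in √10 steps. After 5 days, nuclei were counted on 4× images. Relative viability is treated-well nuclei count divided by vehicle-well nuclei count, and values are medians of duplicate plates.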

Bortezomib + AZD7762 = compound: CC(C)C[C@H](NC(=O)[C@H](Cc1ccccc1)NC(=O)c1cnccn1)B(O)O [Bortezomib] + NC(=O)Nc1cc(-c2cccc(F)c2)sc1C(=O)N[C@H]1CCCNC1 [AZD7762] (partner 0.2 µM)
Summary of the method: as §1

[1] = compound: CC1=CC(=NN1)NC2=CC(=NC(=N2)/C=C/C3=CC=CC=C3)N4CCN(CC4)C + CS(=O)(=O)N1CCN(Cc2cc3nc(-c4cccc5[nH]ncc45)nc(N4CCOCC4)c3s2)CC1 [Pictilisib] (partner 1 µM)
Summary of the method: as §1

Obatoclax + Lapatinib = compound: COC1=CC(c2cc3ccccc3[nH]2)=N/C1=C\c1[nH]c(C)cc1C [Obatoclax] + CS(=O)(=O)CCNCc1ccc(-c2ccc3ncnc(Nc4ccc(OCc5cccc(F)c5)c(Cl)c4)c3c2)o1 [Lapatinib] (partner 2 µM)
Summary of the method: as §1

Cell Line | relative viability (Bortezomib + Phenformin; first compound 0.0002 µM) | relative viability (Bortezomib + Phenformin; first compound 0.000632 µM) | relative viability (Bortezomib + Phenformin; first compound 0.002 µM) | relative viability (Bortezomib + Phenformin; first compound 0.006325 µM) | relative viability (Bortezomib + Phenformin; first compound 0.02 µM) | relative viability (Bortezomib + AZD7762; first compound 0.0002 µM) | relative viability (Bortezomib + AZD7762; first compound 0.000632 µM) | relative viability (Bortezomib + AZD7762; first compound 0.002 µM) | relative viability (Bortezomib + AZD7762; first compound 0.006325 µM) | relative viability (Bortezomib + AZD7762; first compound 0.02 µM) | relative viability ([1]; first compound 0.08 µM) | relative viability ([1]; first compound 0.253 µM) | relative viability ([1]; first compound 0.8 µM) | relative viability ([1]; first compound 2.53 µM) | relative viability ([1]; first compound 8 µM) | relative viability (Obatoclax + Lapatinib; first compound 0.01 µM) | relative viability (Obatoclax + Lapatinib; first compound 0.03162 µM) | relative viability (Obatoclax + Lapatinib; first compound 0.1 µM) | relative viability (Obatoclax + Lapatinib; first compound 0.3162 µM) | relative viability (Obatoclax + Lapatinib; first compound 1 µM)
ChaGo-K-1 | 0.416 | 0.455 | 0.45 | 0.462 | 0.153 | 0.847 | 0.716 | 0.886 | 0.691 | 0.164 | 0.605 | 0.912 | 1 | 0.292 | 0.271 |  |  |  |  | 
EBC-1 |  |  |  |  |  |  |  |  |  |  | 0.394 | 0.451 | 0.392 | 0.143 | 0.0897 | 0.204 | 0.213 | 0.227 | 0.182 | 0.189
EKVX | 0.238 | 0.237 | 0.238 | 0.239 | 0.139 | 0.72 | 0.741 | 0.845 | 0.286 | 0.0785 | 0.438 | 0.478 | 0.488 | 0.31 | 0.115 | 0.208 | 0.19 | 0.215 | 0.199 | 0.189
EMC-BAC-2 | 0.551 | 0.459 | 0.477 | 0.209 | 0.211 | 1.09 | 1.04 | 1.04 | 0.573 | 0.436 | 0.507 | 0.589 | 0.468 | 0.325 | 0.154 | 0.878 | 0.908 | 0.886 | 0.74 | 0.897
EPLC-272H | 0.353 | 0.245 | 0.35 | 0.109 | 0.0723 | 0.188 | 0.163 | 1.2 | 0.153 | 0.0636 | 0.286 | 0.286 | 0.31 | 0.0769 | 0.152 | 0.942 | 0.909 | 0.458 | 0.913 | 0.883
H3255 | 0.368 | 0.346 | 0.334 | 0.307 | 0.288 | 0.867 |  | 0.655 | 0.517 | 0.328 | 0.507 | 0.534 | 0.497 | 0.396 | 0.205 | 0.51 | 0.244 | 0.327 | 0.256 | 0.315
HARA | 0.374 | 0.447 | 0.512 | 0.222 | 0.0528 | 0.257 | 0.311 | 0.577 | 0.178 | 0.0909 | 0.396 | 0.37 | 0.348 | 0.204 | 0.0756 | 0.816 | 0.752 | 0.667 | 0.69 | 0.297
HCC-15 | 0.44 | 0.448 | 0.458 | 0.0952 | 0.0863 | 1.04 | 1.14 | 1.17 | 0.763 | 0.127 | 0.739 | 0.548 | 0.667 | 0.299 | 0.104 | 0.854 | 0.801 | 0.747 | 0.723 | 0.581
HCC-44 | 0.195 | 0.194 | 0.204 | 0.162 | 0.111 | 0.959 | 0.985 | 1.01 | 1.04 | 0.239 | 0.606 | 0.627 | 0.447 | 0.34 | 0.245 | 1.08 | 0.891 | 0.955 | 0.876 | 0.37
